Source: patent US12673063B2, “Methods and materials for treatment of fibrosis” (Massachusetts Eye and Ear Infirmary, priority 2020, dated 2026)

Legend:
A549 cells [1] = assay: CyQUANT Direct Cell Proliferation Assay, A549; format: cell-based, human; conditions: for percent live cells compared to vehicle treated: 48 hours, Ro5-3335 150 μM, Ro24-7429 50 μM-200 μM, Pirfenidone 500 μg/ml, Nintedanib 5 μM; for anti-proliferative effect: 150 μM
Procedure: Human type II alveolar epithelial cells (A549) were a generous gift from Dr. Lagares (Mass General Hospital). Cells were maintained in low glucose-DMEM containing 10% FBS, 2 mM L-glutamine, 100 U/ml penicillin and 100 μg/ml streptomycin at 37° C. in a humidified 5% C02 atmosphere. Confluent cultures of cells were pretreated with Ro24-7429 for 24 hours followed by stimulation with 5 ng/ml of TGF-β1.
(§1) We tested the effect of RUNX1 inhibition on the proliferation of a human alveolar basal epithelial cell line (A549), primary human-derived pulmonary alveolar epithelial cells (HPAEpi), and in human-derived primary culture lung fibroblasts (HLF). For specific analyses we used escalating doses of Ro24-7429 (50-200 μM), Ro5-3335 (150 μM), pirfenidone (500 μg/ml) and nintedanib (5 μM), the latter two are currently approved drugs for IPF.

[2] = test system: human lung fibroblasts (HLF); assay: CyQUANT Direct Cell Proliferation Assay, HLF; format: cell-based; conditions: 72 hours, 150 μM
Text: as §1, with “We conducted mechanistic studies in cell culture to examine the cellular and molecular mechanisms underlying the robust effects of RUNX1 inhibition in the protection against bleomycin-induced lung injury. We” for “We”

A549 cells [3] = assay: Lactate dehydrogenase (LDH) cell death assay, A549; format: cell-based; conditions: for cell death: 500μ g/ml
Procedure: Human type II alveolar epithelial cells (A549) were a generous gift from Dr. Lagares (Mass General Hospital). Cells were maintained in low glucose-DMEM containing 10% FBS, 2 mM L-glutamine, 100 U/ml penicillin and 100 μg/ml streptomycin at 37° C. in a humidified 5% C02 atmosphere.
We tested the effect of RUNX1 inhibition on the proliferation of a human alveolar basal epithelial cell line (A549), primary human-derived pulmonary alveolar epithelial cells (HPAEpi), and in human-derived primary culture lung fibroblasts (HLF).

[4] = test system: human lung fibroblasts (HLF); assay: Lactate dehydrogenase (LDH) cell death assay, HLF; format: cell-based; conditions: Ro24-7429 50-200 μM, Ro5-3335 150 μM
Text: as §1, with “We conducted mechanistic studies in cell culture to examine the cellular and molecular mechanisms underlying the robust effects of RUNX1 inhibition in the protection against bleomycin-induced lung injury. We” for “We”

SMILES: O=C1CN=C(c2ccc[nH]2)c2cc(Cl)ccc2N1 [Ro5-3335, [7-chloro-5-(2-pyrryl)-3H-1,4 benzodiazapin-2-(H)-one]]
- percent live cells compared to vehicle treated (A549 cells [1]): significant reduction
- anti-proliferative effect (A549 cells [1]; A549, 48 hours): 32%
- anti-proliferative effect (A549 cells [1]; A549, 72 hours): 50%
- reduction in proliferation [2]: 40%
- cell death by LDH analysis (A549 cells [3]; A549, Ro24-7429 50-200 μM, Ro5-3335 150 μM): Very low levels of cell death
- cell death by LDH analysis [4]: Very low levels of cell death

SMILES: Cc1ccc(=O)n(-c2ccccc2)c1 [pirfenidone]
- percent live cells compared to vehicle treated (A549 cells [1]): significant reduction
- cell death (A549 cells [3]; A549, 48 hours): 8%
- cell death (A549 cells [3]; A549, 72 hours): 11%
